Results as given in ChEMBL document CHEMBL1275492, “In vitro activity of ceftobiprole against pathogens from two phase 3 clinical trials of complicated skin and skin structure infections” (2008).
Converted amounts (≈) assume the structure as drawn.

Columns and labels:
Assay type in all cases: functional
Pseudomonas aeruginosa = assay: Antibacterial activity against Pseudomonas aeruginosa obtained from complicated skin and skin structure infections by agar dilution method
Citrobacter braakii = assay: Antibacterial activity against Citrobacter braakii obtained from complicated skin and skin structure infections by agar dilution method
Escherichia coli = assay: Antibacterial activity against Escherichia coli obtained from complicated skin and skin structure infections by agar dilution method
Pseudomonas fluorescens = assay: Antibacterial activity against Pseudomonas fluorescens obtained from complicated skin and skin structure infections by agar dilution method
Serratia marcescens = assay: Antibacterial activity against Serratia marcescens obtained from complicated skin and skin structure infections by agar dilution method
Klebsiella oxytoca = assay: Antibacterial activity against Klebsiella oxytoca obtained from complicated skin and skin structure infections by agar dilution method
Enterobacter amnigenus = assay: Antibacterial activity against Enterobacter amnigenus obtained from complicated skin and skin structure infections by agar dilution method; settings: Lelliottia amnigena
Acinetobacter baumannii = assay: Antibacterial activity against Acinetobacter baumannii obtained from complicated skin and skin structure infections by agar dilution method
Klebsiella aerogenes = assay: Antibacterial activity against Enterobacter aerogenes obtained from complicated skin and skin structure infections by agar dilution method
Citrobacter freundii = assay: Antibacterial activity against Citrobacter freundii obtained from complicated skin and skin structure infections by agar dilution method
Proteus penneri = assay: Antibacterial activity against Proteus penneri obtained from complicated skin and skin structure infections by agar dilution method
[1] = system: Stenotrophomonas maltophilia; assay: Antibacterial activity against Stenotrophomonas maltophilia obtained from complicated skin and skin structure infections by agar dilution method
Proteus mirabilis = assay: Antibacterial activity against Proteus mirabilis obtained from complicated skin and skin structure infections by agar dilution method
Klebsiella pneumoniae = assay: Antibacterial activity against Klebsiella pneumoniae obtained from complicated skin and skin structure infections by agar dilution method
Proteus vulgaris = assay: Antibacterial activity against Proteus vulgaris obtained from complicated skin and skin structure infections by agar dilution method
Morganella morganii = assay: Antibacterial activity against Morganella morganii obtained from complicated skin and skin structure infections by agar dilution method
Salmonella = assay: Antibacterial activity against Salmonella spp. obtained from complicated skin and skin structure infections by agar dilution method
Providencia stuartii = assay: Antibacterial activity against Providencia stuartii obtained from complicated skin and skin structure infections by agar dilution method
Enterobacter cloacae = assay: Antibacterial activity against Enterobacter cloacae obtained from complicated skin and skin structure infections by agar dilution method
[2] = system: Streptococcus constellatus; assay: Antibacterial activity against Streptococcus constellatus obtained from complicated skin and skin structure infections by agar dilution method
[3] = system: Staphylococcus haemolyticus; assay: Antibacterial activity against coagulase-negative Staphylococcus haemolyticus obtained from complicated skin and skin structure infections by agar dilution method
Staphylococcus aureus [4] = assay: Antibacterial activity against methicillin susceptible Staphylococcus aureus obtained from complicated skin and skin structure infections by agar dilution method
Staphylococcus warneri = assay: Antibacterial activity against coagulase-negative Staphylococcus warneri obtained from complicated skin and skin structure infections by agar dilution method
Staphylococcus cohnii = assay: Antibacterial activity against coagulase-negative Staphylococcus cohnii obtained from complicated skin and skin structure infections by agar dilution method
[5] = system: Staphylococcus intermedius; assay: Antibacterial activity against Staphylococcus intermedius obtained from complicated skin and skin structure infections by agar dilution method
Mammaliicoccus sciuri = assay: Antibacterial activity against coagulase-negative Staphylococcus sciuri obtained from complicated skin and skin structure infections by agar dilution method
Staphylococcus hominis = assay: Antibacterial activity against coagulase-negative Staphylococcus hominis obtained from complicated skin and skin structure infections by agar dilution method
Aerococcus viridans = assay: Antibacterial activity against Aerococcus viridans obtained from complicated skin and skin structure infections by agar dilution method
Gemella = assay: Antibacterial activity against Gemella spp. obtained from complicated skin and skin structure infections by agar dilution method
Streptococcus mitis = assay: Antibacterial activity against Streptococcus mitis obtained from complicated skin and skin structure infections by agar dilution method
[6] = system: Staphylococcus lugdunensis; assay: Antibacterial activity against methicillin-resistant, oxacillin-susceptible, coagulase-negative, mecA-positive Staphylococcus lugdunensis obtained from complicated skin and skin structure infections by agar dilution method
Bacillus = assay: Antibacterial activity against Bacillus spp. obtained from complicated skin and skin structure infections by agar dilution method
Staphylococcus capitis = assay: Antibacterial activity against coagulase-negative Staphylococcus capitis obtained from complicated skin and skin structure infections by agar dilution method
[7] = system: Staphylococcus epidermidis; assay: Antibacterial activity against coagulase-negative Staphylococcus epidermidis obtained from complicated skin and skin structure infections by agar dilution method
[8] = system: Staphylococcus lugdunensis; assay: Antibacterial activity against coagulase-negative Staphylococcus lugdunensis obtained from complicated skin and skin structure infections by agar dilution method
Staphylococcus = assay: Antibacterial activity against methicillin-susceptible, coagulase-negative Staphylococcus obtained from complicated skin and skin structure infections by agar dilution method
Staphylococcus aureus [9] = assay: Antibacterial activity against Staphylococcus aureus obtained from complicated skin and skin structure infections by agar dilution method
Micrococcus = assay: Antibacterial activity against Micrococcus spp. obtained from complicated skin and skin structure infections by agar dilution method
Staphylococcus aureus [10] = assay: Antibacterial activity against methicillin resistant Staphylococcus aureus obtained from complicated skin and skin structure infections by agar dilution method
[11] = system: Staphylococcus saprophyticus; assay: Antibacterial activity against coagulase-negative Staphylococcus saprophyticus obtained from complicated skin and skin structure infections by agar dilution method
Gemella morbillorum = assay: Antibacterial activity against Gemella morbillorum obtained from complicated skin and skin structure infections […]
Lactococcus lactis = assay: Antibacterial activity against Lactococcus lactis obtained from complicated skin and skin structure infections by agar dilution method

CO/N=C(\C(=O)N[C@@H]1C(=O)N2C(C(=O)[O-])=C(C[N+]3(C)CCCC3)CS[C@H]12)c1csc(N)n1
MIC50 (Pseudomonas aeruginosa): 4 µg/mL (≈ 8.32 µM) | MIC90 (Pseudomonas aeruginosa): 64 µg/mL (≈ 133 µM) | MIC50 (Citrobacter braakii): 0.06 µg/mL (≈ 0.125 µM) | MIC90 (Citrobacter braakii): 4 µg/mL (≈ 8.32 µM) | MIC50 (Escherichia coli): 0.03 µg/mL (≈ 0.0624 µM) | MIC90 (Escherichia coli): 0.12 µg/mL (≈ 0.25 µM) | MIC50 (Pseudomonas fluorescens): > 16 µg/mL | MIC90 (Pseudomonas fluorescens): 32 µg/mL (≈ 66.6 µM) | MIC50 (Serratia marcescens): 0.06 µg/mL (≈ 0.125 µM) | MIC90 (Serratia marcescens): 4 µg/mL (≈ 8.32 µM) | MIC50 (Klebsiella oxytoca): 0.06 µg/mL (≈ 0.125 µM) | MIC90 (Klebsiella oxytoca): 4 µg/mL (≈ 8.32 µM) | MIC50 (Enterobacter amnigenus): 0.06 µg/mL (≈ 0.125 µM) | MIC90 (Enterobacter amnigenus): 4 µg/mL (≈ 8.32 µM) | MIC50 (Acinetobacter baumannii): > 16 µg/mL | MIC90 (Acinetobacter baumannii): 32 µg/mL (≈ 66.6 µM) | MIC50 (Klebsiella aerogenes): 0.06 µg/mL (≈ 0.125 µM) | MIC90 (Klebsiella aerogenes): 4 µg/mL (≈ 8.32 µM) | MIC50 (Citrobacter freundii): 0.06 µg/mL (≈ 0.125 µM) | MIC90 (Citrobacter freundii): 4 µg/mL (≈ 8.32 µM) | MIC50 (Proteus penneri): 0.06 µg/mL (≈ 0.125 µM) | MIC90 (Proteus penneri): 4 µg/mL (≈ 8.32 µM) | MIC50 [1]: > 16 µg/mL | MIC90 [1]: 32 µg/mL (≈ 66.6 µM) | MIC50 (Proteus mirabilis): 0.06 µg/mL (≈ 0.125 µM) | MIC90 (Proteus mirabilis): 1 µg/mL (≈ 2.08 µM) | MIC50 (Klebsiella pneumoniae): ≤ 0.12 µg/mL | MIC90 (Klebsiella pneumoniae): 1 µg/mL (≈ 2.08 µM) | MIC50 (Proteus vulgaris): 0.06 µg/mL (≈ 0.125 µM) | MIC90 (Proteus vulgaris): 4 µg/mL (≈ 8.32 µM) | MIC50 (Morganella morganii): 0.03 µg/mL (≈ 0.0624 µM) | MIC90 (Morganella morganii): > 64 µg/mL | MIC50 (Salmonella): 0.06 µg/mL (≈ 0.125 µM) | MIC90 (Salmonella): 4 µg/mL (≈ 8.32 µM) | MIC50 (Providencia stuartii): 0.06 µg/mL (≈ 0.125 µM) | MIC90 (Providencia stuartii): 4 µg/mL (≈ 8.32 µM)

NCC[C@H](O)C(=O)N[C@@H]1C[C@H](N)[C@@H](O[C@H]2O[C@H](CN)[C@@H](O)[C@H](O)[C@H]2O)[C@H](O)[C@H]1O[C@H]1O[C@H](CO)[C@@H](O)[C@H](N)[C@H]1O [AMIKACIN]
MIC50 (Pseudomonas aeruginosa): 8 µg/mL (≈ 13.7 µM) | MIC90 (Pseudomonas aeruginosa): 64 µg/mL (≈ 109 µM) | MIC50 (Citrobacter braakii): 2 µg/mL (≈ 3.42 µM) | MIC90 (Citrobacter braakii): 8 µg/mL (≈ 13.7 µM) | MIC50 (Escherichia coli): 2 µg/mL (≈ 3.42 µM) | MIC90 (Escherichia coli): 4 µg/mL (≈ 6.83 µM) | MIC50 (Pseudomonas fluorescens): 16 µg/mL (≈ 27.3 µM) | MIC90 (Pseudomonas fluorescens): > 128 µg/mL | MIC50 (Serratia marcescens): 2 µg/mL (≈ 3.42 µM) | MIC90 (Serratia marcescens): 8 µg/mL (≈ 13.7 µM) | MIC50 (Klebsiella oxytoca): 2 µg/mL (≈ 3.42 µM) | MIC90 (Klebsiella oxytoca): 8 µg/mL (≈ 13.7 µM) | MIC50 (Enterobacter amnigenus): 2 µg/mL (≈ 3.42 µM) | MIC90 (Enterobacter amnigenus): 8 µg/mL (≈ 13.7 µM) | MIC50 (Acinetobacter baumannii): 16 µg/mL (≈ 27.3 µM) | MIC90 (Acinetobacter baumannii): > 128 µg/mL | MIC50 (Klebsiella aerogenes): 2 µg/mL (≈ 3.42 µM) | MIC90 (Klebsiella aerogenes): 8 µg/mL (≈ 13.7 µM) | MIC50 (Citrobacter freundii): 2 µg/mL (≈ 3.42 µM) | MIC90 (Citrobacter freundii): 8 µg/mL (≈ 13.7 µM) | MIC50 (Proteus penneri): 2 µg/mL (≈ 3.42 µM) | MIC90 (Proteus penneri): 8 µg/mL (≈ 13.7 µM) | MIC50 [1]: 16 µg/mL (≈ 27.3 µM) | MIC90 [1]: > 128 µg/mL | MIC50 (Enterobacter cloacae): 2 µg/mL (≈ 3.42 µM) | MIC90 (Enterobacter cloacae): 8 µg/mL (≈ 13.7 µM) | MIC50 (Proteus mirabilis): 4 µg/mL (≈ 6.83 µM) | MIC90 (Proteus mirabilis): 16 µg/mL (≈ 27.3 µM) | MIC (Klebsiella pneumoniae): 1 µg/mL (≈ 1.71 µM) | MIC50 (Klebsiella pneumoniae): 1 µg/mL (≈ 1.71 µM) | MIC90 (Klebsiella pneumoniae): 64 µg/mL (≈ 109 µM) | MIC50 (Proteus vulgaris): 2 µg/mL (≈ 3.42 µM) | MIC90 (Proteus vulgaris): 8 µg/mL (≈ 13.7 µM) | MIC50 (Morganella morganii): 2 µg/mL (≈ 3.42 µM) | MIC90 (Morganella morganii): 4 µg/mL (≈ 6.83 µM) | MIC50 (Salmonella): 2 µg/mL (≈ 3.42 µM) | MIC90 (Salmonella): 8 µg/mL (≈ 13.7 µM) | MIC50 (Providencia stuartii): 2 µg/mL (≈ 3.42 µM) | MIC90 (Providencia stuartii): 8 µg/mL (≈ 13.7 µM)

Cc1onc(-c2ccccc2)c1C(=O)N[C@@H]1C(=O)N2[C@@H]1SC(C)(C)[C@@H]2C(=O)O [OXACILLIN]
MIC50 [2]: 0.12 µg/mL (≈ 0.299 µM) | MIC90 [2]: 0.25 µg/mL (≈ 0.623 µM) | MIC50 [3]: 0.5 µg/mL (≈ 1.25 µM) | MIC90 [3]: > 8 µg/mL | MIC50 (Staphylococcus aureus [4]): 0.25 µg/mL (≈ 0.623 µM) | MIC90 (Staphylococcus aureus [4]): 0.5 µg/mL (≈ 1.25 µM) | MIC50 (Staphylococcus warneri): 0.5 µg/mL (≈ 1.25 µM) | MIC90 (Staphylococcus warneri): > 8 µg/mL | MIC50 (Staphylococcus cohnii): 0.5 µg/mL (≈ 1.25 µM) | MIC90 (Staphylococcus cohnii): > 8 µg/mL | MIC [5]: 0.25 µg/mL (≈ 0.623 µM) | MIC50 [5]: 0.25 µg/mL (≈ 0.623 µM) | MIC90 [5]: 1 µg/mL (≈ 2.49 µM) | MIC50 (Mammaliicoccus sciuri): 0.5 µg/mL (≈ 1.25 µM) | MIC90 (Mammaliicoccus sciuri): > 8 µg/mL | MIC50 (Staphylococcus hominis): 0.5 µg/mL (≈ 1.25 µM) | MIC90 (Staphylococcus hominis): > 8 µg/mL | MIC50 (Aerococcus viridans): 0.25 µg/mL (≈ 0.623 µM) | MIC90 (Aerococcus viridans): > 8 µg/mL | MIC50 (Gemella): 0.25 µg/mL (≈ 0.623 µM) | MIC90 (Gemella): > 8 µg/mL | MIC (Streptococcus mitis): 0.25 µg/mL (≈ 0.623 µM) | MIC50 (Streptococcus mitis): 0.25 µg/mL (≈ 0.623 µM) | MIC90 (Streptococcus mitis): 1 µg/mL (≈ 2.49 µM) | MIC50 [6]: 4 µg/mL (≈ 9.96 µM) | MIC90 [6]: 32 µg/mL (≈ 79.7 µM) | MIC50 (Bacillus): 0.25 µg/mL (≈ 0.623 µM) | MIC90 (Bacillus): > 8 µg/mL | MIC50 (Staphylococcus capitis): 0.5 µg/mL (≈ 1.25 µM) | MIC90 (Staphylococcus capitis): > 8 µg/mL | MIC50 [7]: 0.5 µg/mL (≈ 1.25 µM) | MIC90 [7]: > 8 µg/mL | MIC50 [8]: 0.5 µg/mL (≈ 1.25 µM) | MIC90 [8]: > 8 µg/mL | MIC50 (Staphylococcus): 0.12 µg/mL (≈ 0.299 µM) | MIC90 (Staphylococcus): 0.25 µg/mL (≈ 0.623 µM) | MIC50 (Staphylococcus aureus [9]): 0.5 µg/mL (≈ 1.25 µM) | MIC90 (Staphylococcus aureus [9]): 32 µg/mL (≈ 79.7 µM) | MIC50 (Micrococcus): 0.25 µg/mL (≈ 0.623 µM) | MIC90 (Micrococcus): > 8 µg/mL | MIC50 (Staphylococcus aureus [10]): 16 µg/mL (≈ 39.9 µM) | MIC90 (Staphylococcus aureus [10]): > 32 µg/mL | MIC50 [11]: 0.5 µg/mL (≈ 1.25 µM) | MIC90 [11]: > 8 µg/mL | MIC50 (Gemella morbillorum): 0.25 µg/mL (≈ 0.623 µM) | MIC90 (Gemella morbillorum): > 8 µg/mL | MIC50 (Lactococcus lactis): 0.25 µg/mL (≈ 0.623 µM) | MIC90 (Lactococcus lactis): > 8 µg/mL
